Data on one compound can be found in paper PMC7206119, “RIP1 inhibition blocks inflammatory diseases but not tumor growth or metastases” (Cell Death and Differentiation, 2019).

Among the targets are EPHB3 (Homo sapiens, UniProt P54753); ERBB3 (Homo sapiens, UniProt P21860); ERN1 (Homo sapiens, UniProt O75460); FGFR2 (Homo sapiens, UniProt P21802); FLT3(N841I) (Homo sapiens, UniProt P36888, N841I); FYN (Homo sapiens, UniProt P06241); KIT(D816H) (Homo sapiens, UniProt P10721, D816H); PHKG2 (Homo sapiens, UniProt P15735); PIK3CA(M1043I) (Homo sapiens, UniProt P42336, M1043I); PRKX (Homo sapiens, UniProt P51817); RIPK2 (Homo sapiens, UniProt O43353); STK16 (Homo sapiens, UniProt O75716); TNIK (Homo sapiens, UniProt Q9UKE5); WEE2 (Homo sapiens, UniProt P0C1S8); WNK3 (Homo sapiens, UniProt Q9BYP7).

What all share (test): biochemical
What all share (set-up): DiscoverX kinase panel, active-site competition binding (KINOMEscan type), percent of control at one concentration
Common to all, as to conditions: competition binding, percent of control

In a further assay the target is T1, AMPK-alpha2 (Homo sapiens, UniProt P54646).
T1 construct: gene PRKAA2

The target in a further assay is T2, CDK4-cyclinD3 (Homo sapiens, UniProt P11802).
T2 construct: cyclinD3

Another assay concerns the target T3, DCAMKL2 (Homo sapiens, UniProt Q8N568).
T3 construct: gene DCLK2

For another assay, the target named is T4, IKK-alpha (Homo sapiens, UniProt O15111).
T4 construct: gene CHUK

For another assay, the target named is T5, LKB1 (Homo sapiens, UniProt Q15831).
T5 construct: gene STK11

Another assay concerns the target T6, MLK3 (Homo sapiens, UniProt Q16584).
T6 construct: gene MAP3K11

Chain of FGFR2 (P21802 whole entry): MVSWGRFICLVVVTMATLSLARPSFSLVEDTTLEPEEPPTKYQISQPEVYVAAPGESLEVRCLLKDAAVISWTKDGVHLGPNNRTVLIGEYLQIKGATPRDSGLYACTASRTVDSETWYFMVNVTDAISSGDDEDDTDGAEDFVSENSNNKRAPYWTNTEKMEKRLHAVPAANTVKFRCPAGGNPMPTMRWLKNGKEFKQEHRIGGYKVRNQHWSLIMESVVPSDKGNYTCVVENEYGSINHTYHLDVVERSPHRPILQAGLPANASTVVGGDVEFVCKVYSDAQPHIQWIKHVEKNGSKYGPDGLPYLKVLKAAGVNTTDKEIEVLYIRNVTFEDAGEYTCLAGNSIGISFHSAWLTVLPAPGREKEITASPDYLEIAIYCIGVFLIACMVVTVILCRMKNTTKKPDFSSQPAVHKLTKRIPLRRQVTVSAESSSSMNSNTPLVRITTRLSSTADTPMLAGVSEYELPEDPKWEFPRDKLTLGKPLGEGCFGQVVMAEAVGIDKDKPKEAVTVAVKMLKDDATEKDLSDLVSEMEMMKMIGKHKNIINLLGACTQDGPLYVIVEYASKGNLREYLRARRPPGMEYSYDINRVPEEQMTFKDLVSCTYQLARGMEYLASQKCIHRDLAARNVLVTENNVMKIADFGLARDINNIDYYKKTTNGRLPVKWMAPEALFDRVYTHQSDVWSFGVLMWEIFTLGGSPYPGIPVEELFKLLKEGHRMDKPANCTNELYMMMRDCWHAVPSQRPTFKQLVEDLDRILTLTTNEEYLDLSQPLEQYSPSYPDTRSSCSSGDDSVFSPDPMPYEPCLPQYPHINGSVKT
Chain of PIK3CA(M1043I) (P42336 whole entry M1043I): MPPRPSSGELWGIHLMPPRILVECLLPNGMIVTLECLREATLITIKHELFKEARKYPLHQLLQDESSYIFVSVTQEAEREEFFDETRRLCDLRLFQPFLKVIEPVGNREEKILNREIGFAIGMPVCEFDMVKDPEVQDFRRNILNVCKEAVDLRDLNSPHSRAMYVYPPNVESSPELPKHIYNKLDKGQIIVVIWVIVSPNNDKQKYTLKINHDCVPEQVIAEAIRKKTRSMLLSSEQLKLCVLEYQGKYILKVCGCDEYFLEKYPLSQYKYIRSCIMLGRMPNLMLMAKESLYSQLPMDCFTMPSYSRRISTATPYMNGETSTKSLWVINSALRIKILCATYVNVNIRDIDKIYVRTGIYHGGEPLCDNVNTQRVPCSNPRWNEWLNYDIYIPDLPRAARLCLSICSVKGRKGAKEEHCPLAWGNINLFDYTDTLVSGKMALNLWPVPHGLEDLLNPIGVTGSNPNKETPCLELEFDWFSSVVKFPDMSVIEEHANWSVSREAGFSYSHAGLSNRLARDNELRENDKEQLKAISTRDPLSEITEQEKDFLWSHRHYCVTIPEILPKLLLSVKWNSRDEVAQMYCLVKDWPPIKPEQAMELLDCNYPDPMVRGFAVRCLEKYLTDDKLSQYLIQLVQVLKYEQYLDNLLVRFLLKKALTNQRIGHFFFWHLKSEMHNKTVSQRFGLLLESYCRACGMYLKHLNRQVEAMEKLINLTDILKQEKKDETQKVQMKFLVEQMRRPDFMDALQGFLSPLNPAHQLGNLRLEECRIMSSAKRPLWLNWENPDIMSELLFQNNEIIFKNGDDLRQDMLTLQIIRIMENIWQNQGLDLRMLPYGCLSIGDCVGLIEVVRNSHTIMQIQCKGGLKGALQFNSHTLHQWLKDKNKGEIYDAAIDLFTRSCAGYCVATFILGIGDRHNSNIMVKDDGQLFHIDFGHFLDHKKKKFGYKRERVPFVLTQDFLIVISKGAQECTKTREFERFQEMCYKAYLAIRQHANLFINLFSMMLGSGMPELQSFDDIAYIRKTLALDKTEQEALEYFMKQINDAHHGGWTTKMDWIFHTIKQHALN
Chain of STK16 (O75716 whole entry): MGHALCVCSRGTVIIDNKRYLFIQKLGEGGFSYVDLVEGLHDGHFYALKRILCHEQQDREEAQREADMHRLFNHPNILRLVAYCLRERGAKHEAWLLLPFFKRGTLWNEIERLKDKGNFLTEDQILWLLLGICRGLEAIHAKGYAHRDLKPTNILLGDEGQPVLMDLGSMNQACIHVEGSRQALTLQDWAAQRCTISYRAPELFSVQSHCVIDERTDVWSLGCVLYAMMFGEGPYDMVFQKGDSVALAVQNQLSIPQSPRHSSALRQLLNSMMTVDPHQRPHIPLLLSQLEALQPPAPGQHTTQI
Chain of FYN (P06241 whole entry): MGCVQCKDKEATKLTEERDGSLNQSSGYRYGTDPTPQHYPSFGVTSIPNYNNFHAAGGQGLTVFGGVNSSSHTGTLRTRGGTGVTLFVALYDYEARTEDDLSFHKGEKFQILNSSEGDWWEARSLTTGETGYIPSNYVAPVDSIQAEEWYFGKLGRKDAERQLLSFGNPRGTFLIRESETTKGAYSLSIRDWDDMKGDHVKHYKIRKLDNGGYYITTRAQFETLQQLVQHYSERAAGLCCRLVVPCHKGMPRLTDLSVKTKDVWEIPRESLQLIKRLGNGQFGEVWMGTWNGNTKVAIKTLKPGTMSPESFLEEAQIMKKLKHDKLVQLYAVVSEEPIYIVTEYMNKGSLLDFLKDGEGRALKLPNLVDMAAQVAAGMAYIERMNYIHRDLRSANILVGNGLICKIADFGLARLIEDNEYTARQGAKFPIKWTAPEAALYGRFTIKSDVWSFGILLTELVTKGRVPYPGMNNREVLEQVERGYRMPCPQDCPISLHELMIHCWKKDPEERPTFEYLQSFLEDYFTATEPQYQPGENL
T5 sequence (Q15831 whole entry): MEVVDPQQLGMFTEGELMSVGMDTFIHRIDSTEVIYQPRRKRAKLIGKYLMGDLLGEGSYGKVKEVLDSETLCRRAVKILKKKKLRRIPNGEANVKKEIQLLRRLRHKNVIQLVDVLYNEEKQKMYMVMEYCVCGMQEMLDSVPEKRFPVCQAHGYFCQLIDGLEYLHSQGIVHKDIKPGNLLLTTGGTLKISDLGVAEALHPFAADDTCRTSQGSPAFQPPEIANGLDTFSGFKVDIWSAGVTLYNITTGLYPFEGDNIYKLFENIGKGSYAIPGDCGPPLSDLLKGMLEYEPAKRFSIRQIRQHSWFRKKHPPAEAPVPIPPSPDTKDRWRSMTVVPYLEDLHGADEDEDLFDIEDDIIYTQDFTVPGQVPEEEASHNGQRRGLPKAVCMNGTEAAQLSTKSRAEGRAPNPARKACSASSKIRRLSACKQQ
Chain of RIPK2 (O43353 whole entry): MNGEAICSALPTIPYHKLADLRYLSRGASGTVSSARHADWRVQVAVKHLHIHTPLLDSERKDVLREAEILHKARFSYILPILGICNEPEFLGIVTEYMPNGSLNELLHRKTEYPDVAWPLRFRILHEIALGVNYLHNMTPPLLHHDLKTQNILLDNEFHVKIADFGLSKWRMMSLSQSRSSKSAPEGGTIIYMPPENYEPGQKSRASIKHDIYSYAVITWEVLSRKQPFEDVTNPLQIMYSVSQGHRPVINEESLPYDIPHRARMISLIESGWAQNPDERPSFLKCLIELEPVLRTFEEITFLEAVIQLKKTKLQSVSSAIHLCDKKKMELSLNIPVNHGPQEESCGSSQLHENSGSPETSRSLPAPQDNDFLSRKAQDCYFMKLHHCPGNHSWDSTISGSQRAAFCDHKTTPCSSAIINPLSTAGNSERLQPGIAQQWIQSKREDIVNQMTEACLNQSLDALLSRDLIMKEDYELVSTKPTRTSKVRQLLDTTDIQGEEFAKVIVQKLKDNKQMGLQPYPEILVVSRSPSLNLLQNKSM
Chain of KIT(D816H) (P10721 whole entry D816H): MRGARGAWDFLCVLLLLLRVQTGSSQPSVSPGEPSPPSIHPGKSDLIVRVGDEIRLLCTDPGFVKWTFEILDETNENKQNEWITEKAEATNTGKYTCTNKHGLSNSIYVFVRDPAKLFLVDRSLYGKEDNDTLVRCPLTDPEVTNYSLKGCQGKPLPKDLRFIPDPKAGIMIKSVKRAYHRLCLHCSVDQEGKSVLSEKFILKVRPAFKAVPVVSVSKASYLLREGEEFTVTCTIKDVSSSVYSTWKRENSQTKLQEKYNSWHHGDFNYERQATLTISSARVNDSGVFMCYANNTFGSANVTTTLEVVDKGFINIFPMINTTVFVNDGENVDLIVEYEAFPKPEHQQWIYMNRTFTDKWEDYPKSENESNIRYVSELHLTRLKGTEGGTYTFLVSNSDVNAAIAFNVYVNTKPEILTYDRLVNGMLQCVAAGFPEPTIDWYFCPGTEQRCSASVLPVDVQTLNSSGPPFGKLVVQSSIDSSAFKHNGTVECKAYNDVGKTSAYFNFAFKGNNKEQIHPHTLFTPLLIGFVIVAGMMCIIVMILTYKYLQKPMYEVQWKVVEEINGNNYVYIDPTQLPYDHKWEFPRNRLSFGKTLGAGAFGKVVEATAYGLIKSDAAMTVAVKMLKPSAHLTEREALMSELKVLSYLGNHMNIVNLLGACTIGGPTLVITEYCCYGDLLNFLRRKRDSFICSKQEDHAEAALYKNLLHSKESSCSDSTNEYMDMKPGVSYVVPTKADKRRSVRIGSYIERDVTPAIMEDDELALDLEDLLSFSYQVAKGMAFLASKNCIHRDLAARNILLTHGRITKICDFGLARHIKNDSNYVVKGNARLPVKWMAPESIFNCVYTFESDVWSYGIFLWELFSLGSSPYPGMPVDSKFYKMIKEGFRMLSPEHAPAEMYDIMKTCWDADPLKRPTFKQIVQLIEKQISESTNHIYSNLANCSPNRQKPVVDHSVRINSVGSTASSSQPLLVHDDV
Chain of PRKX (P51817 whole entry): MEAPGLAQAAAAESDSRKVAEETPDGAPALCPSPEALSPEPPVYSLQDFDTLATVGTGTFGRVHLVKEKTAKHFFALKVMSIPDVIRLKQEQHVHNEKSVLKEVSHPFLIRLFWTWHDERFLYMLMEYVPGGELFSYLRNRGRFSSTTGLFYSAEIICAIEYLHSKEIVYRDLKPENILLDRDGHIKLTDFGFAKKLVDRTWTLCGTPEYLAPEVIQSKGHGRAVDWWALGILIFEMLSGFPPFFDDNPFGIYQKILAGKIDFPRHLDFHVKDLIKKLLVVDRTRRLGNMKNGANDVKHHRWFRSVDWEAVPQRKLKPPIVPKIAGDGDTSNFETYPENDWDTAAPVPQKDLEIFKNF

For the compound `COc1cc2c(cn1)N(C)C(=O)[C@@H](NC(=O)c1nc3n(n1)[C@H](c1ccccc1)CC3)CC2` [GNE684, (S)-N-((S)-7-methoxy-1-methyl-2-oxo-2,3,4,5-tetrahydro-1H-pyrido[3,4-b]azepin-3-yl)-5-phenyl-6,7-dihydro-5H-pyrrolo[1,2-b][1,2,4]triazole-2-carboxamide], the remaining binding at 10 µM amounted to 81% at AMPK-alpha2; 97% on CDK4-cyclinD3; 95% at DCAMKL2; 100% at EPHB3; 96% at ERBB3; 97% on ERN1. The remaining binding at 10 µM came out at 99% at FGFR2; 100% on FLT3(N841I); 100% on FYN; 100% on IKK-alpha; 100% on KIT(D816H); 100% at LKB1. The remaining binding at 10 µM turned out to be 100% on MLK3; 75% on PHKG2; 99% at PIK3CA(M1043I); 99% at PRKX; 100% on RIPK2; 100% on STK16. The remaining binding at 10 µM on TNIK is 67%; at WEE2 it was 95%; at WNK3, 100%.
